{"source": "patent US5436243A", "about": "“Aminoanthraquinone derivatives to combat multidrug resistance” (priority 1993, dated 1995)", "key": {"[1]": {"system": "A704 human renal cell line", "experiment": "Vinblastine accumulation assay, A704", "format": "cell-based", "conditions": "10 μM, 10 nM [3H] vinblastine", "method": "(§1) These cell lines are models of intrinsic resistance.\n(§2) [^3 H] vinblastine was added to a final concentration of 10 nM and the cells were incubated for 2.5 hours. At this time, the cells were washed 3 times in ice cold PBS and lysed in buffer containing 0.1% Triton X-100."}, "[2]": {"system": "SKRC7 human renal cell line", "experiment": "Vinblastine accumulation assay, SKRC7", "format": "cell-based", "conditions": "10 μM, 10 nM [3H] vinblastine", "method": "as §1, §2"}, "[3]": {"system": "MCF7 Adr 10 human breast cancer cells", "experiment": "Time course of accumulation of anthraquinones in cells", "format": "cell-based", "conditions": "25 μM, 37° C., MCF7 Adr 10 cells", "method": "METHOD: Near confluent monolayers of MCF7 ADR 10 were washed 2 times with Dulbecco's Phosphate Buffered Saline (DPBS) and 1 ml of Iscove's Modified Dulbecco's Medium (IMDM) was added to each well. The monolayers were treated with 25 μM 1b or 1c and incubated at 37° C. After incubating the samples for the times indicated in FIG. 1, the monolayers were washed three times with DPBS and detached using 1 ml of Trypsin-EDTA.An aliquot of the cell suspension was counted using a Coulter Counter and a 0.8 ml aliquot was extracted in a Bligh-Dyer extraction (Bligh et at., Can. J. Biochem. 31:911-916 (1959)). The absorbance of the lower chloroform phase was measured at 648 nm and 600 nm using a spectrophotometer. The amount of 1b or 1c present in the extract was quantitated from a standard curve performed in cell extracts. The data is expressed as nmol anthraquinone/10^6 cells."}, "MCF7 WT": {"system": "MCF7 WT", "experiment": "Tumor cell clonogenic assay, MCF7 WT", "format": "cell-based, human", "description": "The tumor cell clonogenic assays measure clonal proliferation of tumor cells. In this assay, 300-500 cells are plated in 10 cm^2 wells, allowed to adhere overnight, and are treated the following day. Tumor cell colonies were counted after 10-12 days of culture. […] The IC50's are calculated as described above for the MTT proliferation assays."}, "MARCKS protein": {"system": "MARCKS protein", "experiment": "Phosphorylation of MARCKS in intact MCF7 Adr 10 cells", "format": "cell-based, human", "conditions": "MCF7 Adr 10, representative time course experiment, FIG. 12", "excerpt": "The effects of compound 1c on phosphorylation of the P-glycoprotein and the MARCKS protein (myristoylated alanine-rich C kinase substrate) was studied in intact cells labeled with [^32 P] orthophosphate. The MARCKS protein (also known as the 80 to 87 kD protein) is observed to be rapidly phosphorylated subsequent to PKC activation by phorbol esters, cell permeant diacylglycerols, growth factor and hormonal stimulation in a variety of cell types from several species. […] In these experiments, phosphorylation of MARCKS was used as a marker of cellular PKC activity. The effects of 1c on phosphorylation states of the P-glycoprotein and MARCKS protein were studied to test the possibility that this compound may be inhibiting PKC in cells; due to metabolism to an active PKC inhibitor or by achieving inhibitory concentrations in the microenvironment of the P-glycoprotein.\nMETHOD: A monoclonal antibody to the P-glycoprotein, C219, was used to immunoprecipitate the P-glycoprotein and a polyclonal rabbit antibody was used to immunoprecipitate the MARCKS protein from extracts of cells labeled with [^32 P]. MARCKS was immunoprecipitated after preclearing the aliquot with normal rabbit IgG. MCF7 Adr 10 cells were labeled with [^32 P] orthophosphate for two hours. […] P-glycoprotein and MARCKS were immunoprecipitated from aliquots of the same sample containing equivalent radioactivity."}, "[4]": {"experiment": "[3H] VLB binding to MCF7 WT membrane vesicles", "set-up": "species or system human", "conditions": "MCF7 WT membrane vesicles", "method": "METHOD: Membrane vesicles from sensitive and MDR MCF7 were prepared by nitrogen cavitation and isolated by centrifugation in discontinuous sucrose gradients. […] In the presence of 100 nM [^3 H] VLB and ATP, total and nonspecific binding of [^3 H] VLB (experimentally defined as binding in the presence of a 100 μM unlabeled VLB) was measured. Association of [^3 H] […] In contrast, association of [^3 H] […] VLB with MCF7 WT vesicles."}, "[5]": {"target": "P-glycoprotein in MCF7 Adr 10 membrane vesicles (Homo sapiens, UniProt P08183)", "sequence (P08183 whole entry)": "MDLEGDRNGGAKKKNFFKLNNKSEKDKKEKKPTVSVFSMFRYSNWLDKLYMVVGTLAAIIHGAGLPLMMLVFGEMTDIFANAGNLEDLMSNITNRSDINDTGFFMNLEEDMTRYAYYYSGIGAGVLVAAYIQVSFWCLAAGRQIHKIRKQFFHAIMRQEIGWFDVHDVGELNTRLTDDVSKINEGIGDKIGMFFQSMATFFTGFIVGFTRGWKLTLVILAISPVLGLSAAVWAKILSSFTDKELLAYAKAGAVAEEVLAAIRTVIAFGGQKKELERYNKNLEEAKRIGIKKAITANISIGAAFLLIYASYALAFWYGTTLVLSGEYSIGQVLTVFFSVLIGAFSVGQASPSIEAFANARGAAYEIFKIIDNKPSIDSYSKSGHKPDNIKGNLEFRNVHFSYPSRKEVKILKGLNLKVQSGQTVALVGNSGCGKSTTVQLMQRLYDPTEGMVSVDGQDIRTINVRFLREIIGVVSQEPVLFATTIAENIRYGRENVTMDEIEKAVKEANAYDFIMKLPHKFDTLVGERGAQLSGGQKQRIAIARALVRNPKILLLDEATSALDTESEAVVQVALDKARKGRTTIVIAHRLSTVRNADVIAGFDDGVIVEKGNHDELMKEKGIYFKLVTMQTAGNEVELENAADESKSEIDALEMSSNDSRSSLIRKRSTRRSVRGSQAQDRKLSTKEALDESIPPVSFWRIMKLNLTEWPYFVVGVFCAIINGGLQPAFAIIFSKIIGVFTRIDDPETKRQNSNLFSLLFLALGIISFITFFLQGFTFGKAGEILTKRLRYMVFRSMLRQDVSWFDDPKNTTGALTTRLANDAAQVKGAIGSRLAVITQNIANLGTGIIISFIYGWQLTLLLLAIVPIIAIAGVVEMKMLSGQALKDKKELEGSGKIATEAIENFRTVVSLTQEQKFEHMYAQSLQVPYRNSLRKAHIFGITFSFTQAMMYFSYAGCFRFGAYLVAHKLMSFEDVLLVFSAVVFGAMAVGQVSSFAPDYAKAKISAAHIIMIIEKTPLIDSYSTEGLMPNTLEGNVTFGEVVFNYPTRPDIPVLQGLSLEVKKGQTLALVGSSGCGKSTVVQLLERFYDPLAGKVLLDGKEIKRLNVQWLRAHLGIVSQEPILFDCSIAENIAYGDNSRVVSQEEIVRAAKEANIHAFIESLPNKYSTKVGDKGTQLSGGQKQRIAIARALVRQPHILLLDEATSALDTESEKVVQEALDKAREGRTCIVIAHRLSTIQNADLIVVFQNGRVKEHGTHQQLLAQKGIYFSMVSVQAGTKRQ"}, "[6]": {"system": "UOK-39 human renal cell line", "experiment": "Vinblastine accumulation assay, UOK-39", "format": "cell-based", "conditions": "10 μM, 10 nM [3H] vinblastine", "method": "as §1, §2"}}, "data": [{"smiles": "O=C1c2ccccc2C(=O)c2c(NCCCN3CCOCC3)ccc(NCCCN3CCOCC3)c21", "note": "[Compound 1c, 1,4-bis-[[3'(4-morpholino)propyl]amino]anthraquinone]", "values": [{"measurement": "vinblastine accumulation relative to verapamil", "setting": "[1]", "result": "comparable or superior to verapamil activity"}, {"measurement": "vinblastine accumulation relative to verapamil", "setting": "[2]", "result": "comparable or superior to verapamil activity"}, {"measurement": "time of maximal accumulation of 1b and 1c", "setting": "[3]", "result": "about 2 hours"}, {"measurement": "IC50", "setting": "MCF7 WT; Homo sapiens, MCF7, tumor cell clonogenic assay, 10-12 days, read-out: Continuous Exposure IC50, MCF7 WT", "result": 800, "unit": "nM"}, {"measurement": "antiproliferative effect relative to human CFU-GM", "setting": "MCF7 WT; sensitive cancer cells, clonal proliferation assays", "result": "approximately 10 times"}, {"measurement": "increase of MARCKS phosphorylation", "setting": "MARCKS protein", "result": 3, "unit": "fold"}, {"measurement": "effect on specific binding of [3H] VLB", "setting": "[4]", "result": "no effect"}, {"measurement": "effect on non-specific binding of [3H] VLB", "setting": "[5]", "result": "no effect"}, {"measurement": "vinblastine accumulation relative to verapamil", "setting": "[6]", "result": "comparable or superior to verapamil activity"}]}]}
